One data set concerns the target T1, CYP2C9 (Homo sapiens, UniProt P11712).
T1 construct: human liver microsomes (BD Gentest); tissue BD Gentest; host or cells: human liver microsomes
In words: CYP2C9 inhibition assay. Conditions: human liver microsomes, substrate Luciferin-H; for inhibition at 25 min, 2.2 µM: pH 7.4, probe Luciferin-H (100 μM final), read-out: CYP2C9 % inh @ 2.2 μM. It is filed as in vitro ADME. The procedure:
(§1) Stock solutions of test compounds were assayed in 96-well format for their ability to inhibit CYP2C9, CYP2D6, or CYP3A4 mediated metabolism of test substrates. Luciferin-H was used as the substrate for CYP2C9; 3-[2-(N,N-diethyl-N-methylammonium)ethyl]-7-methoxy-4-methylcoumarin (AMMC) was used as the substrate for CYP2D6; 7-benzyloxyquiniline (BZQ) was used as the substrate for CYP3A4. For each subtype, positive controls (sulphaphenazole in the case of CYP2C9; quinidine in the case of CYP2D6, ketoconazole in the case of CYP3A4) were used to validate assay results run in duplicate.
(§2) Pre-Incubation Mixture Preparation for CYP2C9 and CYP2D6: A pre-incubation mixture was prepared by combining 100 mM phosphate buffer (9.12 mL; pH 7.4), human liver microsomes (BD Gentest, 240 itt; final concentration: 0.4 mg/mL), and 10 mM nicotinamide adenine dinucleotide phosphate in 65.4 mM MgCl2 hexahydrate (120 μL; final concentration: 125 μM and 818 μM, respectively). To this was mixture is added a ‘regeneration’ mixture (120 μL) of 333 mM glucose-6-phosphate and 40 U/mL glucose-6-phosphate dehydrogenase in 5 mM sodium citrate (final concentration: 4 mM, 0.5 U/mL, and 0.06 mM, respectively).
Substrate Mixture Preparation for CYP2C9: To a solution of 25 mM phosphate buffer, (2.16 mL, pH 7.4) was added 5 mM Luciferin-H (Promega P450 Glo Assay V8792, 240 μL; final solution concentration 0.5 mM, final assay concentration 100 μM).
CYP2C9 Inhibiton Assay: To each well in the assay plate containing varying concentrations of test compound or control compound in DMSO (10 μL) Pre-Incubation Mixture (40 itt) was added to the wells and the assay plate was pre-incubated for 10 minutes at 37° C., with shaking or rocking. CYP2C9 Substrate Mixture (10 μL) was added to all wells and the assay plate was incubated for an additional 25 minutes at 37° C., with shaking or rocking. Final DMSO concentration was 1%. Luciferin-H detection reagent (Promega kit V8792, 50 μL) was added to all wells. The plate was then vortexed at ambient temperature for between 20 minutes and 2 hours, and the luminescence of each well was then read and recorded.

Data set [1] is described as follows: Rat telemetry protocol, core body temperature. Type of data set: in vivo. Conditions: core body temperature of rats one hour post dosing, 100 μmol/kg p.o., relative to vehicle. The gist of the method: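 Male Sprague Dawley rats (225–250 g) with intraperitoneal telemetry transmitters, 2-week recovery. Single oral 100 μmol/kg dose in 10% EtOH/20% Tween-80/70% PEG-400; core body temperature recorded every 15 min over 24 h.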

The target of another data set is T2, CYP2D6 (Homo sapiens, UniProt P10635).
T2 construct: human liver microsomes (BD Gentest); tissue BD Gentest; host or cells: human liver microsomes
T2 sequence (P10635 whole entry): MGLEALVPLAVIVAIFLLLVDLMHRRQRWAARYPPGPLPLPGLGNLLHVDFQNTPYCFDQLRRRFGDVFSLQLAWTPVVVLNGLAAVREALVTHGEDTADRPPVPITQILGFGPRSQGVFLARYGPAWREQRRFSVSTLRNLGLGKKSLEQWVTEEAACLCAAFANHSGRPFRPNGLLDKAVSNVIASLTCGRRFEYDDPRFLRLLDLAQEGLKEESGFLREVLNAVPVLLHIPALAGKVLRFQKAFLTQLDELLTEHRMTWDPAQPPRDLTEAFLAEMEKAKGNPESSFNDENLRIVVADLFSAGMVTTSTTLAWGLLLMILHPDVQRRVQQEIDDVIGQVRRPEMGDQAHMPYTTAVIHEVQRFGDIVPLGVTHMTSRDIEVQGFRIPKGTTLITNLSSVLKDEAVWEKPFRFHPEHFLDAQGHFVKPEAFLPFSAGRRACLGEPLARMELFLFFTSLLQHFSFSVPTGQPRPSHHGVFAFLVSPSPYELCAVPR
In words: in vitro. Type of data set: in vitro ADME. The note with it: microsomes; for inhibition at 25 min, 2.2 µM: human, pH 7.4. How it is done: as §1, §2
Substrate Mixture Preparation for CYP2D6: To a solution of 100 mM phosphate buffer, (2.80 mL, pH 7.4) was added 10 mM AMMC in acetonitrile (14 itt; final solution concentration 0.05 mM, final assay concentration 10 μM).
CYP2D6 Inhibiton Assay: To each well in the assay plate containing varying concentrations of test compound or control compound in DMSO (10 μL), Pre-Incubation Mixture (40 μL) was added to the wells and the assay plate was pre-incubated for 10 minutes at 37° C., with shaking or rocking. A pre-read of each well was performed at 390 nm and 460 nm extinction/emission. CYP2D6 Substrate Mixture (10 μL) was added to all wells and the assay plate was incubated for an additional […] at 37° C., with shaking or rocking. Final DMSO concentration was 1%. A post-read of each well was then performed at 390 nm and 460 nm extinction/emission.

T1 sequence (P11712 whole entry): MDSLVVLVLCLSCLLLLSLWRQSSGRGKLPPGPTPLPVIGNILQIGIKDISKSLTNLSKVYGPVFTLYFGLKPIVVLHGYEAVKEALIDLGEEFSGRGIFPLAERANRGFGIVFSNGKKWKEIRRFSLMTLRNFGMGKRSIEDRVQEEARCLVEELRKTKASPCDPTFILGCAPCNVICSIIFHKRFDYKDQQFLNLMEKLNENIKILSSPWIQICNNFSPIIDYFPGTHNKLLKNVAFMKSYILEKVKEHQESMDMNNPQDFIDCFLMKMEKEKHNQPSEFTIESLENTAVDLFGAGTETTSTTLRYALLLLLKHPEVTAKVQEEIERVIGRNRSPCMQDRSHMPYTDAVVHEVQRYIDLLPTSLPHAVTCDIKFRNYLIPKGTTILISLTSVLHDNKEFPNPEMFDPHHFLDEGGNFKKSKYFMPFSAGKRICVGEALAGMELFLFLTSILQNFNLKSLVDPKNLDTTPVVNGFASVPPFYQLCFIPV

On to `Cc1cc2c(NC(=O)N[C@@H]3C[C@](C)(CF)Oc4cc(Cl)ccc43)cccc2cn1` (single isomer, unassigned) [Example 121], for which the inhibition at 25 min, 2.2 µM on CYP2C9 amounted to 15%; at CYP2D6 it was 8%. The “Δ Temp (° C.)” value in data set [1] came out at 0.0 °C.
For `Cc1cc2c(NC(=O)N[C@@H]3CC(CF)(CF)Oc4ccccc43)cccc2cn1` [Example 101, N-[(4R)-2,2-bis(fluoromethyl)-3,4-dihydro-2H-chromen-4-yl]-N′-(3-methylisoquinolin-5-yl)urea], in that order: 11%, 11% and 0.0 °C.
For `Cc1cc2c(NC(=O)N[C@@H]3C[C@](C)(CF)Oc4c(F)cccc43)cccc2cn1` [Example 126, N-[(2R,4R)-8-fluoro-2-(fluoromethyl)-2-methyl-3,4-dihydro-2H-chromen-4-yl]-N′-(3-methylisoquinolin-5-yl)urea] the same measures were 0%, 0% and 0.0 °C.
For `Cc1cc2c(NC(=O)N[C@@H]3C[C@@](C)(CF)Oc4c(F)cccc43)cccc2cn1` [Example 128, N-[(2S,4R)-8-fluoro-2-(fluoromethyl)-2-methyl-3,4-dihydro-2H-chromen-4-yl]-N′-(3-methylisoquinolin-5-yl)urea], in that order: 9%, 0.23% and −0.1 °C.
As to `CC1(C)C[C@@H](NC(=O)Nc2cccc3cnccc23)c2cc(F)ccc2O1` [Example 5, N-[(4R)-6-fluoro-2,2-dimethyl-3,4-dihydro-2H-chromen-4-yl]-N′-isoquinolin-5-ylurea], the results for the inhibition at 25 min, 2.2 µM at CYP2C9 and at CYP2D6 were 55% and 100%, respectively. In addition, the “Δ Temp (° C.)” value in data set [1] is −0.2 °C.
For `Cc1cc2c(NC(=O)N[C@@H]3CC(CF)(CF)Oc4c(Cl)cccc43)cccc2cn1` [Example 91, N-[(4R)-8-chloro-2,2-bis(fluoromethyl)-3,4-dihydro-2H-chromen-4-yl]-N′-(3-methylisoquinolin-5-yl)urea], in that order: 13%, 19% and −0.1 °C.
As for `Cc1cc2c(NC(=O)N[C@@H]3CC(CF)(CF)Oc4c(F)cc(F)cc43)cccc2cn1` [Example 120, N-[(4R)-6,8-difluoro-2,2-bis(fluoromethyl)-3,4-dihydro-2H-chromen-4-yl]-N′-(3-methylisoquinolin-5-yl)urea], the inhibition at 25 min, 2.2 µM is 11% at CYP2C9 and 6.2% against CYP2D6. Moreover, the “Δ Temp (° C.)” value in data set [1] is −0.5 °C.
For `Cc1cc2c(NC(=O)N[C@@H]3CC(CF)(CF)Oc4cc(Br)ccc43)cccc2cn1` [Example 102, N-[(4R)-7-bromo-2,2-bis(fluoromethyl)-3,4-dihydro-2H-chromen-4-yl]-N′-(3-methylisoquinolin-5-yl)urea] the same measures were 13%, 20% and −0.7 °C.
For `CCC1(CC)C[C@@H](NC(=O)Nc2cccc3cnccc23)c2cc(F)ccc2O1` [Example 28, N-[(4R)-2,2-diethyl-6-fluoro-3,4-dihydro-2H-chromen-4-yl]-N′-isoquinolin-5-ylurea], in that order: 35%, 98% and −0.2 °C.
For `Cc1cc2c(NC(=O)N[C@@H]3CC(CF)(CF)Oc4cc(F)ccc43)cccc2cn1` [Example 96, N-[(4R)-7-fluoro-2,2-bis(fluoromethyl)-3,4-dihydro-2H-chromen-4-yl]-N′-(3-methylisoquinolin-5-yl)urea], in that order: 4.1%, 7.9% and 0.0 °C.
For `Cc1cc2c(NC(=O)N[C@@H]3CC(C)(C)Oc4c(OC(F)(F)F)cccc43)cccc2cn1` [Example 94, N-[(4R)-2,2-dimethyl-8-(trifluoromethoxy)-3,4-dihydro-2H-chromen-4-yl]-N′-(3-methylisoquinolin-5-yl)urea], the inhibition at 25 min, 2.2 µM at CYP2C9 was 5.2%; against CYP2D6 it was 16%. Moreover, the “Δ Temp (° C.)” value in data set [1] is −2.0 °C.
For the compound “N-[(4R)-2,2-diethyl-8-fluoro-3,4-dihydro-2H-chromen-4-yl]-N-(3-methylisoquinolin-5-yl)urea [Example 62]”, the “CYP2C9 % inh @ 2.2 μM” value on CYP2C9 stood at 22%. For the same compound, in data set [1], the “Δ Temp (° C.)” value is −0.5 °C. Further, on CYP2D6, the “CYP2D6 % inh @ 2.2 μM)” value worked out at 9.1%.
For “N-[(4R)-7-fluoro-2,2,8-trimethyl-3,4-dihydro-2H-chromen-4-yl]-N-(3-methylisoquinolin-5-yl)urea [Example 111]”, in that order: 0.36%, −1.3 °C and 0.87%.
For “N-[(4R)-2,2-diethyl-6-fluoro-3,4-dihydro-2H-chromen-4-yl]-N-(3-methylisoquinolin-5-yl)urea [Example 56]” the same measures were 20%, 0.2 °C and 14%.
As to `Cc1cc2c(NC(=O)N[C@@H]3CC(C)(C)Oc4cc(F)ccc43)c(F)ccc2cn1` [Example 123, N-[(4R)-7-fluoro-2,2-dimethyl-3,4-dihydro-2H-chromen-4-yl]-N′-(6-fluoro-3-methylisoquinolin-5-yl)urea], the inhibition at 25 min, 2.2 µM at CYP2C9 was 19%; against CYP2D6, 42%. Besides, the “Δ Temp (° C.)” value in data set [1] is 0.0 °C.
Consider “N-[(4R)-6,8-difluoro-2,2-dimethyl-3,4-dihydro-2H-chromen-4-yl]-N-(3-methylisoquinolin-5-yl)urea [Example 98]”, for which, on CYP2C9, the “CYP2C9 % inh @ 2.2 μM” value is recorded as 8.4%. Also, the “Δ Temp (° C.)” value in data set [1] turned out to be 0.0 °C. The “CYP2D6 % inh @ 2.2 μM)” value on CYP2D6 is given as 3.7%.
In the case of `Cc1cc2c(NC(=O)N[C@@H]3C[C@@](C)(C(F)F)Oc4cc(Cl)ccc43)cccc2cn1` (single isomer, unassigned) [Example 124], the inhibition at 25 min, 2.2 µM stood at 1.2% on CYP2C9 and 8.4% on CYP2D6. Moreover, in data set [1], the “Δ Temp (° C.)” value was found to be 0.0 °C.
Regarding `CCC1(CC)C[C@@H](NC(=O)Nc2cccc3cnc(C)cc23)c2ccc(Cl)cc2O1` [Example 69, N-[(4R)-7-chloro-2,2-diethyl-3,4-dihydro-2H-chromen-4-yl]-N′-(3-methylisoquinolin-5-yl)urea], the inhibition at 25 min, 2.2 µM at CYP2C9 came to 5.3%; against CYP2D6, 0%. Also, the “Δ Temp (° C.)” value in data set [1] is 0.1 °C.
For `Cc1cc2c(NC(=O)N[C@@H]3CC(C)(C)Oc4cc(Cl)ccc43)cccc2cn1` [Example 97, N-[(4R)-7-chloro-2,2-dimethyl-3,4-dihydro-2H-chromen-4-yl]-N′-(3-methylisoquinolin-5-yl)urea] the same measures were 17%, 19% and 0.4 °C.

The values are drawn from US8604053B2, “TRPV1 antagonists” (AbbVie Inc., priority 2008, dated 2013).
